Measurements published in ChEMBL document CHEMBL1201862, “PubChem BioAssay data set” (2004).
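Method: 48-hour compound exposure of cells in 96-well plates, five concentrations, linear interpolation of endpoints. At the GI50, growth is halved.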 Active and inactive are the calls of the source. Cut-off read from the data, not from the text of the source: active = GI50 up to about 1.1 µM and inactive = higher.

Tests used:
Test in all cases: NCI anticancer screen, dose series, 48 h
SNB-75 = tested on: SNB-75
CCRF-CEM = tested on: CCRF-CEM
Malme-3M = tested on: Malme-3M
UO-31 = tested on: UO-31
KM12 = tested on: KM12
OVCAR-3 = tested on: OVCAR-3
NCI-H23 = tested on: NCI-H23
DMS-273 = tested on: DMS-273
U-251 = tested on: U-251
SF-268 = tested on: SF-268
HOP-62 = tested on: HOP-62
MOLT-4 = tested on: MOLT-4
SK-MEL-2 = tested on: SK-MEL-2
SNB-19 = tested on: SNB-19
NCI/ADR-RES = tested on: NCI/ADR-RES
HL-60 = tested on: HL-60
NCI-H226 = tested on: NCI-H226
HCC 2998 = tested on: HCC 2998
SK-MEL-5 = tested on: SK-MEL-5
K562 = tested on: K562

| Structure (SMILES) | GI50 (SNB-75) | GI50 (CCRF-CEM) | GI50 (Malme-3M) | GI50 (UO-31) | GI50 (KM12) | GI50 (OVCAR-3) | GI50 (NCI-H23) | GI50 (DMS-273) | GI50 (U-251) | GI50 (SF-268) | GI50 (HOP-62) | GI50 (MOLT-4) | GI50 (SK-MEL-2) | GI50 (SNB-19) | GI50 (NCI/ADR-RES) | GI50 (HL-60) | GI50 (NCI-H226) | GI50 (HCC 2998) | GI50 (SK-MEL-5) | GI50 (K562) |
| --- | --- | --- | --- | --- | --- | --- | --- | --- | --- | --- | --- | --- | --- | --- | --- | --- | --- | --- | --- | --- |
| COc1cc(O)c(Cc2ccccc2O)c(O)c1C(=O)CCc1ccccc1 [UVARETIN] | 6.92 µM (inactive) | 6.21 µM (inactive) | 4.89 µM (inactive) | 6.21 µM (inactive) | 6.81 µM (inactive) | 4.58 µM (inactive) | 4.17 µM (inactive) | 4.39 µM (inactive) | 5.12 µM (inactive) | 7.01 µM (inactive) | 2.47 µM (inactive) | 3.85 µM (inactive) | 4.71 µM (inactive) | 6.55 µM (inactive) | 5.66 µM (inactive) | 4.43 µM (inactive) | 6.62 µM (inactive) | 6.1 µM (inactive) | 3.69 µM (inactive) | 5.26 µM (inactive) |
| CNC(=S)N/N=C(/C)CCC/C(C)=N/NC(=S)NC | 29 µM (inactive) | 0.145 µM (active) | > 90.4 µM (inactive) | > 54.8 µM (inactive) | > 100 µM (inactive) | 0.411 µM (active) | > 100 µM (inactive) |  | > 42.1 µM (inactive) | > 35.2 µM (inactive) | > 100 µM (inactive) | 0.0414 µM (active) | > 100 µM (inactive) | > 100 µM (inactive) | > 100 µM (inactive) | > 100 µM (inactive) | > 61.7 µM (inactive) |  | 16.4 µM (inactive) | 0.408 µM (active) |
| CSc1nc(NC2OC(CO)C(O)C(O)C2O)c(N)c(=O)n1C (stereo not drawn) | > 100 µM (inactive) | > 100 µM (inactive) | > 100 µM (inactive) | > 100 µM (inactive) | > 100 µM (inactive) | > 100 µM (inactive) | > 100 µM (inactive) | > 100 µM (inactive) | > 100 µM (inactive) | > 100 µM (inactive) | > 100 µM (inactive) | > 100 µM (inactive) | > 100 µM (inactive) | > 100 µM (inactive) | > 100 µM (inactive) | > 100 µM (inactive) | > 100 µM (inactive) | > 100 µM (inactive) | > 100 µM (inactive) | > 100 µM (inactive) |
| CC(=O)C(=O)NC1/C=C(C)\C=C/C(O)C/C=C(C)\C=C/C(O)CC2OC(=O)C1(C)C(=O)C2C (stereo not drawn) | > 100 µM (inactive) | > 76.7 µM (inactive) | > 100 µM (inactive) | > 100 µM (inactive) | > 100 µM (inactive) | > 100 µM (inactive) | > 100 µM (inactive) | > 100 µM (inactive) | > 100 µM (inactive) | > 100 µM (inactive) | > 100 µM (inactive) | > 31.2 µM (inactive) | > 100 µM (inactive) | > 100 µM (inactive) | > 100 µM (inactive) |  | > 100 µM (inactive) | > 100 µM (inactive) | > 100 µM (inactive) | > 61.1 µM (inactive) |
| C[n+]1ccc(Nc2ccc(NC(=O)c3ccc(Nc4cc[n+](C)c5ccc([N+](=O)[O-])cc45)cc3[N+](=O)[O-])cc2)cc1 | > 57.4 µM (inactive) | 24.4 µM (inactive) | 19.7 µM (inactive) | 45.3 µM (inactive) | 65.9 µM (inactive) | 18.9 µM (inactive) | > 55.6 µM (inactive) | 34.9 µM (inactive) | 22.6 µM (inactive) | 40.6 µM (inactive) | 59.8 µM (inactive) | 32.3 µM (inactive) | 48.8 µM (inactive) | > 73.3 µM (inactive) | > 85.7 µM (inactive) |  | > 56.1 µM (inactive) | > 100 µM (inactive) | 24.1 µM (inactive) | 14.3 µM (inactive) |
| CO/N=C1/c2sccc2[C@H](NC(=O)C(Cc2ccccc2)NC(=O)OC(C)(C)C)[C@@H]1O (stereo partly drawn) | > 100 µM (inactive) | > 100 µM (inactive) | > 100 µM (inactive) | 51.4 µM (inactive) |  | > 100 µM (inactive) | > 100 µM (inactive) |  | > 100 µM (inactive) | > 100 µM (inactive) | > 100 µM (inactive) | 93.3 µM (inactive) | > 100 µM (inactive) | > 100 µM (inactive) | > 100 µM (inactive) | 85.1 µM (inactive) | > 100 µM (inactive) | > 100 µM (inactive) | > 100 µM (inactive) | > 100 µM (inactive) |
| Cc1cc(C)c2c(c1)CC1(Cc3c(C)ccc(C)c3C1=O)C2=O (stereo not drawn) | > 100 µM (inactive) | > 100 µM (inactive) | > 100 µM (inactive) |  | > 100 µM (inactive) | > 100 µM (inactive) |  |  | > 100 µM (inactive) | > 100 µM (inactive) |  | > 100 µM (inactive) | > 100 µM (inactive) | > 100 µM (inactive) | > 100 µM (inactive) | > 100 µM (inactive) | > 100 µM (inactive) | > 100 µM (inactive) | > 100 µM (inactive) | > 100 µM (inactive) |
| CCC1CN2CCc3cc(OC)c(OC)cc3C2CC1CC1c2cc(OC)c(OC)cc2CCN1C(=O)C(N)Cc1ccccc1.[O-][Cl+3]([O-])([O-])O (stereo not drawn) | 2.94 µM (inactive) | 0.41 µM (active) | 2.77 µM (inactive) | 2.13 µM (inactive) | 1.77 µM (inactive) | 4.16 µM (inactive) | 2.42 µM (inactive) | 1.98 µM (inactive) | 2.06 µM (inactive) | 3.37 µM (inactive) | 2.73 µM (inactive) | 0.239 µM (active) | 2.23 µM (inactive) | 1.85 µM (inactive) |  | 1.59 µM (inactive) |  | 0.564 µM (active) | 2.12 µM (inactive) | 0.238 µM (active) |
| CCN(CC)CCCOC(=O)/C=C/c1c(C)[nH]c(=O)[nH]c1=O | > 625 µM (inactive) | > 625 µM (inactive) | > 625 µM (inactive) | > 625 µM (inactive) | > 625 µM (inactive) | > 625 µM (inactive) | > 625 µM (inactive) | > 625 µM (inactive) | > 625 µM (inactive) | > 625 µM (inactive) | > 625 µM (inactive) | > 625 µM (inactive) | > 394 µM (inactive) | > 625 µM (inactive) | > 625 µM (inactive) | > 625 µM (inactive) | > 625 µM (inactive) | > 625 µM (inactive) | > 625 µM (inactive) | > 625 µM (inactive) |
